Measured values published in patent US20260262643A1, “HERBICIDAL BENZOXAZINES” (FMC CORPORATION, priority 2022, published 2026).

Experiments:
[1] = tested on: barnyardgrass; assay: Test C preemergence; type: in vivo, Echinochloa crusgalli; conditions: 0 to 100 scale (0 no effect, 100 complete control); for Plant response rating, Barnyardgrass: Preemergence, 500 g ai/ha, visual rating after 10 days; for Barnyardgrass plant response rating: Test C, preemergence, 125 g ai/ha
Summary of the method: (§1)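 Visual injury ratings on a 0–100 scale (100 = complete control) were made against untreated controls 10 days after treatment in the greenhouse. Compounds, formulated with surfactant in non-phytotoxic solvent, were sprayed on soil preemergence or onto one- to two-leaf plants 2–10 cm tall postemergence.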

[2] = tested on: blackgrass; assay: Test C preemergence; type: in vivo, Alopecurus myosuroides; conditions: 0 to 100 scale (0 no effect, 100 complete control); for Plant response rating, Blackgrass: Preemergence, 500 g ai/ha, visual rating after 10 days; for Blackgrass plant response rating: Test C, preemergence, 125 g ai/ha
Summary of the method: as §1

[3] = tested on: corn; assay: Test C preemergence; type: in vivo, Zea mays; conditions: 0 to 100 scale (0 no effect, 100 complete control); for Plant response rating, Corn: Preemergence, 500 g ai/ha, visual rating after 10 days; for Corn plant response rating: Test C, preemergence, 125 g ai/ha
Summary of the method: as §1

[4] = tested on: green foxtail; assay: Test C preemergence; type: in vivo, Setaria viridis; conditions: 0 to 100 scale (0 no effect, 100 complete control); for Plant response rating, Foxtail, Green: Preemergence, 500 g ai/ha, visual rating after 10 days; for Foxtail, Green plant response rating: Test C, preemergence, 125 g ai/ha
Summary of the method: as §1

[5] = tested on: kochia; assay: Test C preemergence; type: in vivo, Bassia scoparia; conditions: 0 to 100 scale (0 no effect, 100 complete control); for Plant response rating, Kochia: Preemergence, 500 g ai/ha, visual rating after 10 days; for Kochia plant response rating: Test C, preemergence, 125 g ai/ha
Summary of the method: as §1

[6] = tested on: oat, wild; assay: Test C preemergence; type: in vivo, Avena fatua; conditions: 0 to 100 scale (0 no effect, 100 complete control); for Plant response rating, Oat, Wild: Preemergence, 500 g ai/ha, visual rating after 10 days; for Oat, Wild plant response rating: Test C, preemergence, 125 g ai/ha
Summary of the method: as §1

[7] = tested on: pigweed, palmer; assay: Test C preemergence; type: in vivo, Amaranthus palmeri; conditions: 0 to 100 scale (0 no effect, 100 complete control); for Plant response rating, Pigweed, Palmer: Preemergence, 500 g ai/ha, visual rating after 10 days; for Pigweed, Palmer plant response rating: Test C, preemergence, 125 g ai/ha
Summary of the method: as §1

[8] = tested on: ragweed; assay: Test C preemergence; type: in vivo, Ambrosia artemisiifolia; conditions: 0 to 100 scale (0 no effect, 100 complete control); for Plant response rating, Ragweed: Preemergence, 500 g ai/ha, visual rating after 10 days; for Ragweed plant response rating: Test C, preemergence, 125 g ai/ha
Summary of the method: as §1

[9] = tested on: ryegrass, Italian; assay: Test C preemergence; type: in vivo, Lolium multiflorum; conditions: 0 to 100 scale (0 no effect, 100 complete control); for Plant response rating, Ryegrass, Italian: Preemergence, 500 g ai/ha, visual rating after 10 days; for Ryegrass, Italian plant response rating: Test C, preemergence, 125 g ai/ha
Summary of the method: as §1

[10] = tested on: soybean; assay: Test C preemergence; type: in vivo, Glycine max; conditions: 0 to 100 scale (0 no effect, 100 complete control); for Plant response rating, Soybean: Preemergence, 500 g ai/ha, visual rating after 10 days; for Soybean plant response rating: Test C, preemergence, 125 g ai/ha
Summary of the method: as §1

[11] = tested on: wheat; assay: Test C preemergence; type: in vivo, Triticum aestivum; conditions: 0 to 100 scale (0 no effect, 100 complete control); for Plant response rating, Wheat: Preemergence, 500 g ai/ha, visual rating after 10 days; for Wheat plant response rating: Test C, preemergence, 125 g ai/ha
Summary of the method: as §1

[12] = tested on: barnyardgrass; assay: Test C postemergence; type: in vivo, Echinochloa crusgalli; conditions: 10 days
Summary of the method: as §1

[13] = tested on: blackgrass; assay: Test C postemergence; type: in vivo, Alopecurus myosuroides; conditions: 10 days
Summary of the method: as §1

[14] = tested on: corn; assay: Test C postemergence; type: in vivo, Zea mays; conditions: 10 days
Summary of the method: as §1

[15] = tested on: kochia; assay: Test C postemergence; type: in vivo, Bassia scoparia; conditions: 10 days
Summary of the method: as §1

[16] = tested on: oat, wild; assay: Test C postemergence; type: in vivo, Avena fatua; conditions: 10 days
Summary of the method: as §1

[17] = tested on: pigweed, palmer; assay: Test C postemergence; type: in vivo, Amaranthus palmeri; conditions: 10 days
Summary of the method: as §1

[18] = tested on: ragweed; assay: Test C postemergence; type: in vivo, Ambrosia artemisiifolia; conditions: 10 days
Summary of the method: as §1

[19] = tested on: ryegrass, Italian; assay: Test C postemergence; type: in vivo, Lolium multiflorum; conditions: 10 days
Summary of the method: as §1

[20] = tested on: soybean; assay: Test C postemergence; type: in vivo, Glycine max; conditions: 10 days
Summary of the method: as §1

[21] = tested on: wheat; assay: Test C postemergence; type: in vivo, Triticum aestivum; conditions: 10 days
Summary of the method: as §1

[22] = tested on: galium; assay: Test C postemergence; type: in vivo, Galium aparine; conditions: 10 days
Summary of the method: as §1

[23] = tested on: horseweed; assay: Test C postemergence; type: in vivo, Erigeron canadensis; conditions: 10 days
Summary of the method: as §1

[24] = tested on: barnyardgrass; assay: Test D flooded paddy test; type: in vivo, Echinochloa crus-galli; conditions: 250 g ai/ha, applied to paddy water, visual rating after 13 to 14 days, scale 0 to 100 (0 no effect, 100 complete control)
Method: (§2) Plant species in the flooded paddy test selected from barnyardgrass (Echinochloa crus-galli), ducksalad (Heteranthera limosa), rice (Oryza sativa), and sedge, umbrella (small-flower umbrella sedge, Cyperus difformis) were grown to the 2-leaf stage for testing. At time of treatment, test pots were flooded to 3 cm above the soil surface, treated by application of test compounds directly to the paddy water, and then maintained at that water depth for the duration of the test. Treated plants and controls were maintained in a greenhouse for 13 to 14 days, after which time all species were compared to controls and visually evaluated. Plant response ratings, summarized in Table D, are based on a scale of 0 to 100 where 0 is no effect and 100 is complete control. A dash (-) response means no test result.

[25] = tested on: ducksalad; assay: Test D flooded paddy test; type: in vivo, Heteranthera limosa; conditions: 250 g ai/ha, applied to paddy water, visual rating after 13 to 14 days, scale 0 to 100 (0 no effect, 100 complete control)
Method: as §2

[26] = tested on: rice; assay: Test D flooded paddy test; type: in vivo, Oryza sativa; conditions: 250 g ai/ha, applied to paddy water, visual rating after 13 to 14 days, scale 0 to 100 (0 no effect, 100 complete control)
Method: as §2

[27] = tested on: sedge, umbrella; assay: Test D flooded paddy test; type: in vivo, Cyperus difformis; conditions: 250 g ai/ha, applied to paddy water, visual rating after 13 to 14 days, scale 0 to 100 (0 no effect, 100 complete control)
Method: as §2

[28] = 125 g ai/ha, postemergence, 0 to 100 scale, 0 no effect, 100 complete control
[29] = Postemergence, 500 g ai/ha, visual 0 to 100 scale (0 no effect, 100 complete control)

## COC[C@H]1CN(C(=O)c2cc(-n3cnc(C4CC4)n3)ccc2OC)c2cccc(Cl)c2O1 [Compound 235]
[1]
  Plant response rating, Barnyardgrass: 90
  Barnyardgrass plant response rating: 50
[2]
  Plant response rating, Blackgrass: 80
  Blackgrass plant response rating: 50
[3]
  Plant response rating, Corn: 0
  Corn plant response rating: 20
[4]
  Plant response rating, Foxtail, Green: 100
  Foxtail, Green plant response rating: 100
[5]
  Plant response rating, Kochia: 90
  Kochia plant response rating: 80
[6]
  Plant response rating, Oat, Wild: 80
  Oat, Wild plant response rating: 20
[7]
  Plant response rating, Pigweed, Palmer: 100
  Pigweed, Palmer plant response rating: 90
[8]
  Plant response rating, Ragweed: 60
  Ragweed plant response rating: 30
[9]
  Plant response rating, Ryegrass, Italian: 90
  Ryegrass, Italian plant response rating: 80
[10]
  Plant response rating, Soybean: 70
  Soybean plant response rating: 60
[11]
  Plant response rating, Wheat: 30
  Wheat plant response rating: 30
[12]; [28]
  Plant response rating, Barnyardgrass: 90
[12]; [29]
  Plant response rating, Barnyardgrass: 90
[13]; [28]
  Plant response rating, Blackgrass: 70
[13]; [29]
  Plant response rating, Blackgrass: 90
[14]; [28]
  Plant response rating, Corn: 50
[14]; [29]
  Plant response rating, Corn: 90
[15]; [28]
  Plant response rating, Kochia: 90
[15]; [29]
  Plant response rating, Kochia: 90
[16]; [28]
  Plant response rating, Oat, Wild: 40
[16]; [29]
  Plant response rating, Oat, Wild: 60
[17]; [28]
  Plant response rating, Pigweed, Palmer: 70
[17]; [29]
  Plant response rating, Pigweed, Palmer: 90
[18]; [28]
  Plant response rating, Ragweed: 70
[18]; [29]
  Plant response rating, Ragweed: 80
[19]; [28]
  Plant response rating, Ryegrass, Italian: 70
[19]; [29]
  Plant response rating, Ryegrass, Italian: 100
[20]; [28]
  Plant response rating, Soybean: 100
[20]; [29]
  Plant response rating, Soybean: 100
[21]; [28]
  Plant response rating, Wheat: 30
[21]; [29]
  Plant response rating, Wheat: 30
[22]; [28]
  Plant response rating, Galium: 100
[22]; [29]
  Plant response rating, Galium: 100
[23]; [28]
  Plant response rating, Horseweed: 30
[23]; [29]
  Plant response rating, Horseweed: 70
[24]
  Plant response rating, Barnyardgrass (Flood): 10
[25]
  Plant response rating, Ducksalad (Flood): 90
[26]
  Plant response rating, Rice (Flood): 15
[27]
  Plant response rating, Sedge, Umbrella (Flood): 90

## CCc1ncn(-c2ccc(OC)c(C(=O)N3C[C@H](COC)Oc4c(Cl)cccc43)c2)n1 [Compound 231]
[1]
  Plant response rating, Barnyardgrass: 100
  Barnyardgrass plant response rating: 60
[2]
  Plant response rating, Blackgrass: 90
  Blackgrass plant response rating: 60
[3]
  Plant response rating, Corn: 30
  Corn plant response rating: 10
[4]
  Plant response rating, Foxtail, Green: 100
  Foxtail, Green plant response rating: 100
[5]
  Plant response rating, Kochia: 100
  Kochia plant response rating: 90
[6]
  Plant response rating, Oat, Wild: 80
  Oat, Wild plant response rating: 40
[7]
  Plant response rating, Pigweed, Palmer: 100
  Pigweed, Palmer plant response rating: 100
[8]
  Plant response rating, Ragweed: 90
  Ragweed plant response rating: 50
[9]
  Plant response rating, Ryegrass, Italian: 90
  Ryegrass, Italian plant response rating: 70
[10]
  Plant response rating, Soybean: 70
  Soybean plant response rating: 60
[11]
  Plant response rating, Wheat: 80
  Wheat plant response rating: 40
[12]; [28]
  Plant response rating, Barnyardgrass: 80
[12]; [29]
  Plant response rating, Barnyardgrass: 90
[13]; [28]
  Plant response rating, Blackgrass: 80
[13]; [29]
  Plant response rating, Blackgrass: 90
[14]; [28]
  Plant response rating, Corn: 70
[14]; [29]
  Plant response rating, Corn: 90
[15]; [28]
  Plant response rating, Kochia: 80
[15]; [29]
  Plant response rating, Kochia: 90
[16]; [28]
  Plant response rating, Oat, Wild: 50
[16]; [29]
  Plant response rating, Oat, Wild: 90
[17]; [28]
  Plant response rating, Pigweed, Palmer: 90
[17]; [29]
  Plant response rating, Pigweed, Palmer: 90
[18]; [28]
  Plant response rating, Ragweed: 70
[18]; [29]
  Plant response rating, Ragweed: 70
[19]; [28]
  Plant response rating, Ryegrass, Italian: 90
[19]; [29]
  Plant response rating, Ryegrass, Italian: 100
[20]; [28]
  Plant response rating, Soybean: 100
[20]; [29]
  Plant response rating, Soybean: 100
[21]; [28]
  Plant response rating, Wheat: 50
[21]; [29]
  Plant response rating, Wheat: 90
[22]; [28]
  Plant response rating, Galium: 100
[22]; [29]
  Plant response rating, Galium: 100
[23]; [28]
  Plant response rating, Horseweed: 60
[23]; [29]
  Plant response rating, Horseweed: 90
[24]
  Plant response rating, Barnyardgrass (Flood): 15
[25]
  Plant response rating, Ducksalad (Flood): 85
[26]
  Plant response rating, Rice (Flood): 0
[27]
  Plant response rating, Sedge, Umbrella (Flood): 100
